Measured values reported in US10517889B2, “Modulators of SMAD7 expression” (Ionis Pharmaceuticals, Inc., priority 2017, dated 2019).
Strand notation (5' to 3'): a small letter for the sugar, then the base; units joined by * are phosphorothioate-linked, units joined directly phosphodiester-linked; [ ] holds rarer units or linkages, { } end groups; capitals alone tell only the bases. k = constrained ethyl (cEt); [5mC] = 5-methylcytosine; d = 2'-deoxy (DNA)

What follows are substances tested on human SMAD7 mRNA (assay: Antisense inhibition of human SMAD7 mRNA expression in Hep3B cells by 3-10-3 cEt gapmers, 10,000 nM, electroporation (Example 2)). Conditions: Hep3B cells, electroporation with 10,000 nM antisense oligonucleotide, approximately 24 hours, RTS5062, percent inhibition of SMAD7 mRNA relative to untreated control cells.
Format: cell-based
Outline: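 Percent inhibition of SMAD7 mRNA, relative to untreated cells, after ~24 h exposure of electroporated Hep3B cells to 10,000 nM cEt gapmer; levels by qRT-PCR, corrected for total RNA.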

Substance	% Inhibition
799662 (antisense k[5mC]*kG*kT*dG*dA*dG*d[5mC]*dA*d[5mC]*dT*dT*d[5mC]*dT*kG*kT*k[5mC]) [compound 799662]	55%
799664 (antisense kG*k[5mC]*k[5mC]*dA*dG*d[5mC]*dA*dA*dG*dG*dA*dT*d[5mC]*kA*kA*kA) [compound 799664]	8%
799665 (antisense kG*kA*kT*dG*d[5mC]*d[5mC]*dA*dG*d[5mC]*dA*dA*dG*dG*kA*kT*k[5mC]) [compound 799665]	57%
799666 (antisense k[5mC]*kA*kG*dA*dT*dG*d[5mC]*d[5mC]*dA*dG*d[5mC]*dA*dA*kG*kG*kA) [compound 799666]	51%
799670 (antisense kT*k[5mC]*kT*dG*dA*dG*dA*d[5mC]*dT*dA*dT*dG*dA*k[5mC]*kA*kG) [compound 799670]	51%
799682 (antisense kG*kG*kT*d[5mC]*d[5mC]*dA*dG*dG*dA*d[5mC]*dT*dG*dG*kT*k[5mC]*kT) [compound 799682]	55%
799683 (antisense k[5mC]*kT*kG*d[5mC]*dA*dG*dA*dA*dG*dA*dG*dG*d[5mC]*kG*kG*kG) [compound 799683]	32%
799684 (antisense kA*kA*kT*dG*d[5mC]*dT*dG*dT*d[5mC]*dA*d[5mC]*d[5mC]*d[5mC]*kT*kG*kT) [compound 799684]	52%
799685 (antisense kG*kA*kT*dT*dT*dT*dA*dA*dA*dT*dG*d[5mC]*dT*kG*kT*k[5mC]) [compound 799685]	25%
799687 (antisense kG*kG*k[5mC]*dA*dG*d[5mC]*dA*dG*dA*d[5mC]*d[5mC]*dA*dT*k[5mC]*kT*kT) [compound 799687]	35%
799688 (antisense k[5mC]*kA*k[5mC]*d[5mC]*dA*d[5mC]*d[5mC]*d[5mC]*dA*dA*dA*dG*d[5mC]*k[5mC]*kT*kG) [compound 799688]	50%
799690 (antisense kA*kG*k[5mC]*dT*dA*d[5mC]*dA*dG*dT*d[5mC]*dA*dG*dG*k[5mC]*kT*kT) [compound 799690]	51%
799691 (antisense kT*k[5mC]*k[5mC]*d[5mC]*dA*dT*dA*dG*dG*dT*dG*dT*dA*k[5mC]*kA*kA) [compound 799691]	49%
799702 (antisense k[5mC]*kA*kT*d[5mC]*dA*d[5mC]*d[5mC]*dA*d[5mC]*dT*d[5mC]*dT*dA*k[5mC]*kA*kG) [compound 799702]	43%
799703 (antisense k[5mC]*k[5mC]*kA*dA*dT*dG*dG*d[5mC]*dA*dT*dT*dG*dA*kA*kT*kA) [compound 799703]	45%
799704 (antisense kA*k[5mC]*k[5mC]*dA*dA*dT*dG*dG*d[5mC]*dA*dT*dT*dG*kA*kA*kT) [compound 799704]	12%
799705 (antisense kA*kA*k[5mC]*dT*dT*dA*dA*dA*dA*dT*dG*dT*dG*k[5mC]*k[5mC]*kA) [compound 799705]	26%
799706 (antisense k[5mC]*kT*kT*dG*dT*dG*dG*dT*dA*dA*dA*dA*dT*kA*k[5mC]*kA) [compound 799706]	47%
799707 (antisense kA*kA*kA*d[5mC]*dT*dT*dG*dT*dG*dG*dT*dA*dA*kA*kA*kT) [compound 799707]	38%
799710 (antisense kG*kT*k[5mC]*dA*dA*dA*d[5mC]*dT*dT*dG*dT*dG*dG*kT*kA*kA) [compound 799710]	48%
799723 (antisense kA*kG*k[5mC]*d[5mC]*dA*dA*d[5mC]*d[5mC]*d[5mC]*dT*dG*dG*d[5mC]*kA*k[5mC]*k[5mC]) [compound 799723]	0%
799724 (antisense kA*kA*k[5mC]*dT*dT*dG*dG*dG*d[5mC]*dA*dA*dG*dG*kA*k[5mC]*kA) [compound 799724]	24%

Same assay, conditions: Hep3B cells, electroporation, 10,000 nM antisense oligonucleotide, approximately 24 hours, RTS5062, relative to untreated control cells

Substance	% inhibition of SMAD7 mRNA expression
799658 (antisense kA*kA*k[5mC]*dT*dA*d[5mC]*dA*dA*dG*dT*dG*dG*dT*kT*kG*k[5mC]) [compound 799658]	22%
799659 (antisense kA*kA*kA*dT*dA*dA*d[5mC]*dT*dA*d[5mC]*dA*dA*dG*kT*kG*kG) [compound 799659]	57%
799660 (antisense kT*kG*kG*dG*dA*dG*d[5mC]*dA*d[5mC]*dT*dT*d[5mC]*dT*kT*kT*kT) [compound 799660]	35%
799661 (antisense k[5mC]*kT*k[5mC]*d[5mC]*dA*d[5mC]*dT*dG*d[5mC]*d[5mC]*dT*d[5mC]*d[5mC]*kT*kA*k[5mC]) [compound 799661]	44%
799672 (antisense kA*k[5mC]*kA*dG*dG*dA*dT*dG*dG*dA*dG*d[5mC]*dA*kA*kT*kG) [compound 799672]	41%
799675 (antisense kT*k[5mC]*k[5mC]*d[5mC]*dA*dG*dT*dT*d[5mC]*dA*dT*dG*dA*kT*k[5mC]*kA) [compound 799675]	0%
799676 (antisense kG*kA*kA*dA*d[5mC]*d[5mC]*dA*dT*dG*dA*dG*d[5mC]*dT*kG*kT*kT) [compound 799676]	64%
799677 (antisense kG*k[5mC]*kT*d[5mC]*dA*dT*dG*dA*dG*d[5mC]*dA*dT*dT*kT*kG*kG) [compound 799677]	68%
799678 (antisense k[5mC]*kA*k[5mC]*dA*dA*dG*d[5mC]*dA*d[5mC]*d[5mC]*dT*dG*dT*k[5mC]*k[5mC]*kA) [compound 799678]	0%
799679 (antisense k[5mC]*kT*kG*d[5mC]*dA*dG*dG*dG*dT*dA*d[5mC]*dT*dA*kA*kG*kG) [compound 799679]	0%
799680 (antisense kG*kA*kG*dT*dT*d[5mC]*dT*dA*dG*dG*d[5mC]*d[5mC]*dG*kT*k[5mC]*kA) [compound 799680]	33%
799681 (antisense kA*k[5mC]*kT*d[5mC]*dA*dT*d[5mC]*d[5mC]*dT*dG*dT*dT*dG*kG*k[5mC]*kA) [compound 799681]	53%
799692 (antisense kA*k[5mC]*kA*d[5mC]*dA*dG*dT*dA*dA*d[5mC]*dA*dA*d[5mC]*kA*kA*kT) [compound 799692]	0%
799693 (antisense kT*kT*kA*dT*dG*dA*d[5mC]*dA*d[5mC]*dA*dG*dT*dA*kA*k[5mC]*kA) [compound 799693]	17%
799694 (antisense kA*kA*kG*dG*dA*dA*dT*dT*dA*dT*dG*dA*d[5mC]*kA*k[5mC]*kA) [compound 799694]	7%
799695 (antisense k[5mC]*k[5mC]*kA*dG*dG*dA*dA*d[5mC]*d[5mC]*dA*dG*d[5mC]*dA*k[5mC]*kT*kT) [compound 799695]	6%
799696 (antisense kA*kA*kG*dT*dT*dA*dT*d[5mC]*dT*dG*dG*dG*dA*kA*kG*k[5mC]) [compound 799696]	43%
799697 (antisense kA*kA*kT*dA*dG*dT*dT*dT*dT*d[5mC]*dT*d[5mC]*dT*k[5mC]*kA*kA) [compound 799697]	59%
799698 (antisense kT*kA*kA*dT*dA*dG*dT*dT*dT*dT*d[5mC]*dT*d[5mC]*kT*k[5mC]*kA) [compound 799698]	33%
799699 (antisense k[5mC]*kA*kA*dA*dA*d[5mC]*dA*dG*dT*dG*dG*dA*d[5mC]*k[5mC]*kA*kT) [compound 799699]	57%
799700 (antisense k[5mC]*kA*kT*dG*dA*d[5mC]*dA*dG*d[5mC]*dA*dA*dA*dG*k[5mC]*kA*kA) [compound 799700]	49%
799701 (antisense k[5mC]*kT*kA*d[5mC]*dA*dG*dT*dT*d[5mC]*d[5mC]*dA*dG*dA*kA*k[5mC]*kA) [compound 799701]	46%
799713 (antisense k[5mC]*kA*k[5mC]*dA*dA*dT*d[5mC]*dA*d[5mC]*dT*dG*dT*dT*k[5mC]*k[5mC]*kT) [compound 799713]	0%
799714 (antisense k[5mC]*kA*k[5mC]*d[5mC]*dA*dA*dA*dA*d[5mC]*dA*dA*dG*dT*kG*kT*k[5mC]) [compound 799714]	33%
799715 (antisense k[5mC]*k[5mC]*kT*d[5mC]*dA*dG*dG*dG*d[5mC]*dT*dG*d[5mC]*d[5mC]*kA*k[5mC]*k[5mC]) [compound 799715]	32%
799716 (antisense kG*kG*k[5mC]*dT*dA*d[5mC]*d[5mC]*dA*dG*d[5mC]*d[5mC]*dT*dT*kG*k[5mC]*kT) [compound 799716]	32%
799717 (antisense kG*k[5mC]*kA*dG*dG*d[5mC]*dT*dA*d[5mC]*d[5mC]*dA*dG*d[5mC]*k[5mC]*kT*kT) [compound 799717]	0%
799719 (antisense k[5mC]*k[5mC]*kT*dT*dT*d[5mC]*dT*dA*d[5mC]*dT*dA*dG*dA*kA*kA*kA) [compound 799719]	19%
799720 (antisense kA*k[5mC]*kA*d[5mC]*dA*d[5mC]*dA*dG*d[5mC]*dA*dG*dA*dA*kG*kG*k[5mC]) [compound 799720]	40%
799721 (antisense kG*kT*kA*dA*d[5mC]*dA*d[5mC]*dA*d[5mC]*dA*dG*d[5mC]*dA*kG*kA*kA) [compound 799721]	42%
